{"source": "patent US10584115B2", "about": "“Substituted pyridine and pyrazine BMI-1 inhibitors” (PTC Therapeutics, Inc., priority 2013, dated 2020)"}
{"tested_on": "Bmi-1 protein", "experiment": "Sandwich ELISA Assay (Bmi-1 protein level in HT-1080 cells after compound treatment)", "type": "cell-based", "settings": "Table 1, Bmi-1 sandwich ELISA, read-out: ELISA EC50 value for Bmi-1 protein", "outline": "(§1)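 Sandwich ELISA quantified Bmi-1 protein against recombinant standard (125–8000 pg/mL), with lysates captured overnight at 4 °C and signal by HRP/TMB at 450 nm (570 nm reference). Lysates came from HT-1080 cells incubated 40–48 h with test compounds in 0.5% DMSO.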", "units": {"EC50": "nM"}}
{"smiles": "Cc1nc2c(n1-c1cncc(Nc3ccc(OC(F)F)cc3)n1)CCCC2", "note": "[compound 258, N-[4-(difluoromethoxy)phenyl]-6-(2-methyl-4,5,6,7-tetrahydro-1H-benzimidazol-1-yl)pyrazin-2-amine]", "EC50": "1 to 10"}
{"smiles": "Cc1nc2cc(F)c(F)cc2n1-c1cncc(Nc2ccc(OC(F)(F)F)cc2)n1", "note": "[compound 266, 6-(5,6-difluoro-2-methyl-1H-benzimidazol-1-yl)-N-[4-(trifluoromethoxy)phenyl]pyrazin-2-amine]", "EC50": "10 to 100"}
{"smiles": "Cc1nc2c(n1-c1cncc(Nc3ccc(C(F)(F)F)cc3)n1)CCCC2", "note": "[compound 267, 6-(2-methyl-4,5,6,7-tetrahydro-1H-benzimidazol-1-yl)-N-[4-(trifluoromethyl)phenyl]pyrazin-2-amine]", "EC50": "1 to 10"}
{"smiles": "Cc1nc2c(n1-c1cncc(Nc3ccc(OC(F)(F)F)cc3)n1)CCCC2", "note": "[compound 268, 6-(2-methyl-4,5,6,7-tetrahydro-1H-benzimidazol-1-yl)-N-[4-(trifluoromethoxy)phenyl]pyrazin-2-amine]", "EC50": "10 to 100"}
{"smiles": "Cc1nc2ncc(F)cc2n1-c1cncc(Nc2ccc(C(F)(F)F)cc2)n1", "note": "[compound 270, 6-(6-fluoro-2-methyl-1H-imidazo[4,5-b]pyridin-1-yl)-N-[4-(trifluoromethyl)phenyl]pyrazin-2-amine]", "EC50": "1 to 10"}
{"smiles": "CCc1nc2ncc(F)cc2n1-c1cncc(Nc2ccc(C(F)(F)F)cc2)n1", "note": "[compound 271, 6-(2-ethyl-6-fluoro-1H-imidazo[4,5-b]pyridin-1-yl)-N-[4-(trifluoromethyl)phenyl]pyrazin-2-amine]", "EC50": "1 to 10"}
{"smiles": "N#Cc1cc(Nc2ccc(C(F)(F)F)cc2)nc(-c2c(C(F)(F)F)nc3ccc(F)cn23)c1", "note": "[compound 272, 2-[6-fluoro-2-(trifluoromethyl)imidazo[1,2-a]pyridin-3-yl]-6-{[4-(trifluoromethyl)phenyl]amino}pyridine-4-carbonitrile]", "EC50": "10 to 100"}
{"smiles": "N#Cc1cc(Nc2ccc(OC(F)F)cc2)nc(-c2c(C(F)(F)F)nc3ccc(F)cn23)c1", "note": "[compound 273, 2-{[4-(difluoromethoxy)phenyl]amino}-6-[6-fluoro-2-(trifluoromethyl)imidazo[1,2-a]pyridin-3-yl]pyridine-4-carbonitrile]", "EC50": "1 to 10"}
{"smiles": "CNc1ccc2nc(C)n(-c3cncc(Nc4ccc(C(F)(F)F)cc4)n3)c2c1", "note": "[compound 274, N,2-dimethyl-1-(6-{[4-(trifluoromethyl)phenyl]amino}pyrazin-2-yl)-1H-benzimidazol-6-amine]", "EC50": "10 to 100"}
{"smiles": "Cc1nc2ccc(NCc3ccccc3)cc2n1-c1cncc(Nc2ccc(C(F)(F)F)cc2)n1", "note": "[compound 275, N-benzyl-2-methyl-1-(6-{[4-(trifluoromethyl)phenyl]amino}pyrazin-2-yl)-1H-benzimidazol-6-amine]", "EC50": "10 to 100"}
{"smiles": "Cc1c(-c2cncc(Nc3ccc(C(F)(F)F)cc3)n2)c(C(F)(F)F)nn1C", "note": "[compound 276, 6-[1,5-dimethyl-3-(trifluoromethyl)-1H-pyrazol-4-yl]-N-[4-(trifluoromethyl)phenyl]pyrazin-2-amine]", "EC50": "10 to 100"}
{"smiles": "Cc1cccc2c1nc(C)n2-c1cncc(Nc2ccc(C(F)(F)F)cc2)n1", "note": "[compound 283, 6-(2,4-dimethyl-1H-benzimidazol-1-yl)-N-[4-(trifluoromethyl)phenyl]pyrazin-2-amine]", "EC50": "10 to 100"}
{"smiles": "Cc1nc2c([N+](=O)[O-])cccc2n1-c1cncc(Nc2ccc(C(F)(F)F)cc2)n1", "note": "[compound 284, 6-(2-methyl-4-nitro-1H-benzimidazol-1-yl)-N-[4-(trifluoromethyl)phenyl]pyrazin-2-amine]", "EC50": "100 to 3000"}
{"smiles": "Cc1nc2ccc(N)cc2n1-c1cncc(Nc2ccc(C(F)(F)F)cc2)n1", "note": "[compound 285, 2-methyl-1-(6-{[4-(trifluoromethyl)phenyl]amino}pyrazin-2-yl)-1H-benzimidazol-6-amine]", "EC50": "10 to 100"}
{"smiles": "N#Cc1cc(Nc2ccc(C(F)(F)F)cc2)nc(-c2c(CO)nc3ccccn23)c1", "note": "[compound 288, 2-[2-(hydroxymethyl)imidazo[1,2-a]pyridin-3-yl]-6-{[4-(trifluoromethyl)phenyl]amino}pyridine-4-carbonitrile]", "EC50": "10 to 100"}
{"smiles": "Cc1nc2ncccc2n1-c1cc(NC(=O)OC(C)(C)C)cc(Nc2ccc(C(F)(F)F)cc2)n1", "note": "[compound 290, tert-butyl[2-(2-methyl-1H-imidazo[4,5-b]pyridin-1-yl)-6-{[4-(trifluoromethyl)phenyl]amino}pyridin-4-yl]carbamate]", "EC50": "100 to 3000"}
{"smiles": "OCCNc1cc(Nc2ccc(C(F)(F)F)cc2)nc(-c2c(C(F)(F)F)nc3ccc(F)cn23)c1", "note": "[compound 291, 2-[(2-[6-fluoro-2-(trifluoromethyl)imidazo[1,2-a]pyridin-3-yl]-6-{[4-(trifluoromethyl)phenyl]amino}pyridin-4-yl)amino]ethanol]", "EC50": "10 to 100"}
{"smiles": "Cc1nc2ncccc2n1-c1cc(N)cc(Nc2ccc(C(F)(F)F)cc2)n1", "note": "[compound 292, 6-(2-methyl-1H-imidazo[4,5-b]pyridin-1-yl)-N^2-[4-(trifluoromethyl)phenyl]pyridine-2,4-diamine]", "EC50": "1 to 10"}
{"smiles": "Fc1cnc2nc(C3CC3)n(-c3cncc(Nc4ccc(C(F)(F)F)cc4)n3)c2c1", "note": "[compound 293, 6-(2-cyclopropyl-6-fluoro-1H-imidazo[4,5-b]pyridin-1-yl)-N-[4-(trifluoromethyl)phenyl]pyrazin-2-amine]", "EC50": "10 to 100"}
{"smiles": "Cc1nc2cc(F)c(F)cc2n1-c1cncc(Nc2ccc(Cl)c(F)c2)n1", "note": "[compound 294, N-(4-chloro-3-fluorophenyl)-6-(5,6-difluoro-2-methyl-1H-benzimidazol-1-yl)pyrazin-2-amine]", "EC50": "100 to 3000"}
{"smiles": "Cc1nc2cc(F)c(F)cc2n1-c1cncc(Nc2ccc(C(F)(F)F)c(F)c2)n1", "note": "[compound 295, 6-(5,6-difluoro-2-methyl-1H-benzimidazol-1-yl)-N-[3-fluoro-4-(trifluoromethyl)phenyl]pyrazin-2-amine]", "EC50": "10 to 100"}
{"smiles": "Cc1nc2c(N)cccc2n1-c1cncc(Nc2ccc(C(F)(F)F)cc2)n1", "note": "[compound 296, 2-methyl-1-(6-{[4-(trifluoromethyl)phenyl]amino}pyrazin-2-yl)-1H-benzimidazol-4-amine]", "EC50": "10 to 100"}
{"smiles": "Cc1nc(Br)cn1-c1cncc(Nc2ccc(C(F)(F)F)cc2)n1", "note": "[compound 298, 6-(4-bromo-2-methyl-1H-imidazol-1-yl)-N-[4-(trifluoromethyl)phenyl]pyrazin-2-amine]", "EC50": "100 to 3000"}
{"smiles": "Cc1nc(C)n(-c2cncc(Nc3ccc(C(F)(F)F)cc3)n2)c1Cl", "note": "[compound 299, 6-(5-chloro-2,4-dimethyl-1H-imidazol-1-yl)-N-[4-(trifluoromethyl)phenyl]pyrazin-2-amine]", "EC50": "100 to 3000"}
{"smiles": "Cc1cn(-c2cncc(Nc3ccc(C(F)(F)F)cc3)n2)c(C)n1", "note": "[compound 300]", "EC50": "10 to 100"}
{"smiles": "Cc1nc2cc(F)c(F)cc2n1-c1cncc(Nc2ccc(OC(F)(F)F)c(F)c2)n1", "note": "[compound 301, 6-(5,6-difluoro-2-methyl-1H-benzimidazol-1-yl)-N-[3-fluoro-4-(trifluoromethoxy)phenyl]pyrazin-2-amine]", "EC50": "100 to 3000"}
{"smiles": "CNCc1nc2ccccn2c1-c1cncc(Nc2ccc(C(F)(F)F)cc2)n1", "note": "[compound 302, 6-{2-[(methylamino)methyl]imidazo[1,2-a]pyridin-3-yl}-N-[4-(trifluoromethyl)phenyl]pyrazin-2-amine]", "EC50": "100 to 3000"}
{"smiles": "Cc1nc(C(F)(F)F)cn1-c1cncc(Nc2ccc(C(F)(F)F)cc2)n1", "note": "[compound 303, 6-[2-methyl-4-(trifluoromethyl)-1H-imidazol-1-yl]-N-[4-(trifluoromethyl)phenyl]pyrazin-2-amine]", "EC50": "100 to 3000"}
{"smiles": "Cc1nc2cc(F)c(F)cc2n1-c1cncc(Nc2ccc(C(F)(F)F)nc2)n1", "note": "[compound 304, 6-(5,6-difluoro-2-methyl-1H-benzimidazol-1-yl)-N-[6-(trifluoromethyl)pyridin-3-yl]pyrazin-2-amine]", "EC50": "10 to 100"}
{"smiles": "Cc1nc(C)n(-c2cncc(Nc3ccc(OC(F)F)cc3)n2)c1Cl", "note": "[compound 305, 6-(5-chloro-2,4-dimethyl-1H-imidazol-1-yl)-N-[4-(difluoromethoxy)phenyl]pyrazin-2-amine]", "EC50": "100 to 3000"}
{"smiles": "Cc1nc2ccccc2n1-c1cncc(Nc2ccc(OCC(F)(F)F)cc2)n1", "note": "[compound 306, 6-(2-methyl-1H-benzimidazol-1-yl)-N-[4-(2,2,2-trifluoroethoxy)phenyl]pyrazin-2-amine]", "EC50": "100 to 3000"}
{"smiles": "Cc1nc2ccccc2n1-c1cncc(Nc2ccc(OC(F)(F)C(F)F)cc2)n1", "note": "[compound 307, 6-(2-methyl-1H-benzimidazol-1-yl)-N-[4-(1,1,2,2-tetrafluoroethoxy)phenyl]pyrazin-2-amine]", "EC50": "100 to 3000"}
{"smiles": "Fc1ccc2ncc(-c3cncc(Nc4ccc(C(F)(F)F)cc4)n3)n2c1", "note": "[compound 308, 6-(6-fluoroimidazo[1,2-a]pyridin-3-yl)-N-[4-(trifluoromethyl)phenyl]pyrazin-2-amine]", "EC50": "100 to 3000"}
{"tested_on": "Bmi-1 protein", "experiment": "Sandwich ELISA Assay (Bmi-1 protein level in HT-1080 cells after compound treatment)", "type": "cell-based", "settings": "read-out: ELISA EC50 value for Bmi-1 protein, Table 1, Bmi-1 sandwich ELISA", "outline": "as §1", "units": {"EC50": "nM"}}
{"smiles": "Cc1ccc(-c2c(C(F)(F)F)nc3ccccn23)nc1Nc1ccc(C(F)(F)F)cc1", "note": "[compound 269, 3-methyl-6-[2-(trifluoromethyl)imidazo[1,2-a]pyridin-3-yl]-N-[4-(trifluoromethyl)phenyl]pyridin-2-amine]", "EC50": "100 to 3000"}
{"smiles": "Cc1c(-c2cncc(Nc3ccc(OC(F)F)cc3)n2)c(C(F)(F)F)nn1C", "note": "[compound 280, N-[4-(difluoromethoxy)phenyl]-6-[1,5-dimethyl-3-(trifluoromethyl)-1H-pyrazol-4-yl]pyrazin-2-amine]", "EC50": "10 to 100"}
{"smiles": "O=[N+]([O-])c1cc(Nc2ccc(C(F)(F)F)cc2)nc(-c2c(C(F)(F)F)nc3ccc(F)cn23)c1", "note": "[compound 286, 6-[6-fluoro-2-(trifluoromethyl)imidazo[1,2-a]pyridin-3-yl]-4-nitro-N-[4-(trifluoromethyl)phenyl]pyridin-2-amine]", "EC50": "10 to 100"}
{"smiles": "Nc1cc(Nc2ccc(C(F)(F)F)cc2)nc(-c2c(C(F)(F)F)nc3ccc(F)cn23)c1", "note": "[compound 287, 6-[6-fluoro-2-(trifluoromethyl)imidazo[1,2-a]pyridin-3-yl]-N^2-[4-(trifluoromethyl)phenyl]pyridine-2,4-diamine]", "EC50": "10 to 100"}
